pEC50, pIC50: −log10 of the molar value. Entries after “also recorded” stand apart in the source; their conditions may differ.
How the values were obtained:
[1] = tested on: leukocytes and platelets; assay: Harmaline accumulation in blood cells by spectrophotofluorometry; assay type: cell-based, human
Experimental: (§1) For this experiment, the beta carboline, harmaline was used. […] Prior to the use of a beta carboline to analyze blood tissues, blood was collected, then leukocytes and platelets were gradient separated utilizing a hypaque/centrifugation technique. The leukocytes were then re-suspended in culture media (phosphate buffered saline (PBS) with bovine serum albumin) at a concentration of […]. The cells and platelets may then be incubated with a solution containing antagonist(s) or blockers of undesired neurotransmitter interactions. With harmaline, there is some amount of cross reactivity with the alpha-2 (noradrenaline) receptor. […] The labelled cells were then analyzed using both spectrophotofluorometry and ultraviolet flow cytometry. With the flow cytometry-analyzed tissue an experiment to detect the presence of imipramine, the serotonin uptake system antagonist, was implemented.
In spectrophotofluorometry (SPF), a volume of labeled cells in suspension are analyzed together, the sum of their emitted fluorescence recorded using a spectrophotofluorometer and compared with other samples with the same concentration of cells. […] This method assumes that the fluorescence emitted from a sum of collected sources (cells) increases proportionally with an individual source. […]

[2] = tested on: muscarinic cholinergic sites; conditions: Muller et al. 1981; cited from earlier work
[3] = tested on: serotonin receptors; conditions: Glennon 1981; cited from earlier work
[4] = biological target: [^3 h]Noradrenaline binding sites of brain tissue; assay: Inhibition of [3H]noradrenaline binding by brain homogenates; conditions: concentration causing 50% inhibition of isotope binding
Experimental: (§2) Samples of brain tissue rich in the respective neurotransmitter binding sites were obtained, homogenized, washed and incubated with a series of beta carboline concentrations. After subsequent additions of tritiated neurotransmitters, the extent of beta carboline inhibition of labeled neurotransmitter binding was measured.

[5] = biological target: [^3 H]GABA binding sites of brain tissue; assay: Inhibition of [3H]GABA binding by brain homogenates; conditions: concentration causing 50% inhibition of isotope binding
Experimental: as §2

[6] = tested on: benzodiazepine receptor; conditions: Muller et al. 1981; cited from earlier work
[7] = biological target: [^3 H]Serotonin binding sites of brain tissue; assay: Inhibition of [3H]serotonin binding by brain homogenates; conditions: concentration causing 50% inhibition of isotope binding
Experimental: (§3) TABLE 1 illustrates the general inhibitory effects of beta carbolines on neurotransmitter binding by brain tissue. Samples of brain tissue rich in the respective neurotransmitter binding sites were obtained, homogenized, washed and incubated with a series of beta carboline concentrations. After subsequent additions of tritiated neurotransmitters, the extent of beta carboline inhibition of labeled neurotransmitter binding was measured. As shown, a variety of beta carbolines were effective antagonists of several neurotransmitters. […] These beta carbolines may be used as vital stains for the respective neurotransmitter systems, accumulating in living tissue.

[8] = tested on: monoamine oxidase A; conditions: Fuller et al. 1985; cited from earlier work
[9] = tested on: rat retina; assay: Fluorescent harmaline accumulation in perfused living retina; assay type: cell-based
Experimental: One test of the serotonin site ligand, harmaline, is in the neuronal tissue of the rat retina. This tissue is known to contain intracellular serotonin. The serotonergic neurotransmitter system in rat retinal neurons has been previously studied and sites of serotonin accumulation have been identified (Redburn and Churchill 1987) primarily using radiolabelled ^3 H-serotonin (see FIG. 2). According to one test of the invention, it was determined that harmaline accumulated in living rat retina tissue in a specific manner. […] The harmaline present in the OPL begins to dissipate when the stained retina is exposed to sodium-free buffer (see FIG. 3, frame B). Exposure of the stained retina to darkness stimulates harmaline release from the OPL (see FIG. 3, frame C). Further, quantitative evaluation of harmaline accumulation was achieved by measuring the amount of fluorescence given off by harmaline when excited with UV-radiation. A light meter was used to generate data. The light meter gathered light emissions from the eyepiece of an ultraviolet microscope. Harmaline's excitation spectrum is 350-390 nm with emission spectra greatest at 480 and 560 nm in the visible range producing a blue green light. Tissue was placed under a microscope in a sealed perfusion chamber through which oxygenated (95% O2 -5% CO2) buffer flowed. Upon administration of harmaline, data from the light meter was standardized to units of harmaline concentration (using standard curves).

[10] = tested on: lymphocytes and platelets; assay: Harmaline accumulation in blood cells by ultraviolet flow cytometry; assay type: cell-based, human
Experimental: as §1, with “receptor. As the blood cells and platelets both have alpha-2 receptors, the noradrenaline antagonist, yohimbine was chosen to block undesired reactivity with these sites. Cells were incubated for 10 minutes with a 100 μM solution of yohimbine. The cells were then divided into numerous samples which were each exposed to increasing concentrations of harmaline (1 μM to 100 μM concentrations were used) for a period of five minutes each.” for “receptor.”
With flow cytometry, a sample of cells was treated prior to analysis, as above. Fluorescence of individual cells was then analyzed sequentially as they passed through detection beams of light in a micro-stream of fluid. Using this method, literally emissions of cells, or "events" were analyzed and statistically computed to elicit accuracy of analysis. In addition, as individual cells are analyzed, more subtle changes in fluorescence ligand-cell association can be appreciated. There are some procedures for measuring the actual number of binding sites on cells which combine flow cytometry with steady-state fluorescence (Steinkamp and Kramer 1979) or radiometric assays (Titus et al. 1981), while others employ fluorescent calibration standards (Sklar et al. 1984). […]

[11] = tested on: ^3 H-serotonin uptake by retina; assay: Inhibition of 3H-serotonin uptake in retina (FIG. 5); assay type: cell-based
[12] = tested on: opiate sites; conditions: Muller et al. 1981; cited from earlier work
[13] = tested on: noradrenergic system of blood cells and platelets; assay: THN accumulation in blood cells and platelets, noradrenaline system; assay type: cell-based; conditions: imipramine 100 μM and serotonin 100 μM pretreatment; extrapolated from literature
Experimental: The analysis of a noradrenaline system using the beta carboline tetrahydronorharman (THN) could be tested using the method described with blood cells and platelets. Cells and platelets would be collected, then pre-treated with solutions to block sites of the serotonin system in order to limit interactions to that of the noradrenergic system. Cells would be first incubated for 10 minutes with the serotonin uptake blocker, imipramine at 100 μM, following which serotonin itself was added to make a concentration of 100 μM for an additional 5 minute incubation. The cells and platelets thusly prepared would then be incubated with the beta carboline, THN, at concentrations of 10 nM to 100 μM. […] These values were obtained via extrapolation from pertinent literature on THN and noradrenaline.

[14] = biological target: [^14 C]Dopamine binding sites of brain tissue; assay: Inhibition of [14C]dopamine binding by brain homogenates; conditions: read-out: IC50, inhibition binding, concentration causing 50% inhibition of isotope binding
Experimental: as §3, with “After subsequent additions of tritiated neurotransmitters, the extent of beta carboline inhibition of labeled neurotransmitter binding was measured.” left out

[15] = biological target: [^3 H]Choline binding sites of brain tissue; assay: Inhibition of [3H]choline binding by brain homogenates; conditions: concentration causing 50% inhibition of isotope binding
Experimental: as §2

[16] = perfusion concentration 5 μM harmaline

Row | Molecule | pIC50 [4] | pIC50 [5] | pIC50 [7] | Inhibition of ^3 H-serotonin uptake by retina [11] | pIC50 [14] | pIC50 [15] | further results
1 | 7-methoxy-3,4-dihydro-beta-carboline [harmaline] | 4.37 | 3.62 | 4.37 | competitively inhibited | – | – | Nature of accumulation in human lymphocytes ([1]; fluorescence measurement): saturable, concentration-dependant phenomena; pEC50 ([1]; yohimbine 100 μM pretreatment, harmaline 1-100 μM, 5 minutes, read-out: EC50 of fluorescent accumulation (spectrophotofluorometry)): 4.52; IC50 for muscarinic cholinergic sites relative to other sites [2]: about four times lower than for serotonin or dopamine sites; also recorded: about four times higher than found for benzodiazepine antagonism; Binding affinity for serotonin receptors [3]: high binding affinities; Potency at benzodiazepine binding relative to serotonin or dopamine [6]: far more potent antagonist of benzodiazepine binding than it is for serotonin or dopamine; Inhibition of monoamine oxidase A in vivo [8]: potently inhibit; Accumulation inside versus outside the cell [9]: three times greater inside than outside the cell; Dependence of accumulation in retina [9]: sodium dependent, energy dependent; Harmaline concentration in outer retina relative to control (non-viable) tissue [9, 16]: 3 fold; Harmaline concentration in outer retina relative to surrounding perfusate [9, 16]: 3 fold; Concentration at which accumulation saturates ([10]; at 5 minutes): 75 to 100 µM; pEC50 ([10]; yohimbine 100 μM pretreatment, harmaline 1-100 μM, 5 minutes, read-out: EC50 of fluorescent accumulation (flow cytometry)): 4.60; IC50 for opiate sites relative to other sites [12]: about four times lower than for serotonin or dopamine sites; also recorded: about four times higher than found for benzodiazepine antagonism
2 | c1ccc2c3c([nH]c2c1)CNCC3 [1,2,3,4-tetrahydro-beta-carboline] | 4.89 | 3.82 | 5.22 | – | 3.66 | 2.05 | THN concentration at which fluorescent accumulation saturates [13]: approximately 10 μM
3 | COc1ccc2c(c1)[nH]c1c(C)nccc12 [7-methoxy-1-methyl-beta-carboline] | 3.15 | – | 4.57 | – | – | 3.70 | –
4 | c1ccc2c(c1)[nH]c1cnccc12 [beta-carboline] | 4.10 | 3.47 | 5.04 | – | 4.00 | 4.12 | –
5 | CN(C)CCCN1c2ccccc2CCc2ccccc21 [imipramine] | – | – | – | antagonized | – | – | Effect on measured harmaline accumulation ([10]; brief incubation with imipramine 25 μM): the measured harmaline accumulation was less
